In ChEMBL document CHEMBL1201862, “PubChem BioAssay data set” (2004):
Calls of active or inactive are those of the source.

Columns and labels:
[1] = molecular target: Homeodomain-interacting protein kinase 2 (Homo sapiens, UniProt Q9H2X6); type: functional;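 further: measured within a kinome-wide kinase profiling panel, HIPK2 being one panel member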
[2] = molecular target: Cyclin-dependent kinase 7 (Homo sapiens, UniProt P50613); type: functional;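 further: value comes from a kinome-wide kinase profiling panel in which CDK7 is one member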
[3] = molecular target: T1, Interleukin-1 receptor-associated kinase 4 (Homo sapiens, UniProt Q9NWZ3); type: functional
T1 sequence (Q9NWZ3 whole entry): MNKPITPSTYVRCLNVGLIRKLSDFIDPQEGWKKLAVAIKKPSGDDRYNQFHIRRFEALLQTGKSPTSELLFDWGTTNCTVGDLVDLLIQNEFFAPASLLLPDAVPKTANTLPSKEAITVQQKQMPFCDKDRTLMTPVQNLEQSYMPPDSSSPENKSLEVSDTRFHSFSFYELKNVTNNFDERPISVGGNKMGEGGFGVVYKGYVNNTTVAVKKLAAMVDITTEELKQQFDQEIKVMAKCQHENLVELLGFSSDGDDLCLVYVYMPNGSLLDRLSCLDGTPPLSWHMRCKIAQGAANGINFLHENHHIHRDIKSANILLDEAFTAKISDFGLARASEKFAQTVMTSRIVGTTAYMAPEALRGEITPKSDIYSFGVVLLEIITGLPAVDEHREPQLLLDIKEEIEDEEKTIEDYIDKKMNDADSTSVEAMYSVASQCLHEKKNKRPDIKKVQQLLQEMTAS

[4] = molecular target: Mitogen-activated protein kinase kinase kinase kinase 4 (Homo sapiens, UniProt O95819); type: functional
[5] = molecular target: Serine/threonine-protein kinase pim-1 (Homo sapiens, UniProt P11309); type: functional
[6] = molecular target: cAMP-dependent protein kinase catalytic subunit alpha (Homo sapiens, UniProt P17612); type: functional
[7] = molecular target: Cyclin-dependent kinase 9 (Homo sapiens, UniProt P50750); type: functional;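 further: value from the CDK9 entry of a kinome-spanning kinase panel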
[8] = molecular target: Cell division cycle 7-related protein kinase (Homo sapiens, UniProt O00311); type: functional;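 further: value obtained from a kinome-wide kinase panel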
Paired box protein Pax-8 = Paired box protein Pax-8 (Homo sapiens, UniProt Q06710); assay: PAX8 transcriptional activity inhibition in RMG-I – RMG-I cells, luciferase, cherry-pick, dose response (AID 687027); type: functional, cell-based;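 further: luciferase reporter driven by Pax8 target thyroperoxidase promoter measured by SteadyGlo luminescence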
[9] = molecular target: T2, Orexin/Hypocretin receptor type 1 (Homo sapiens, UniProt O43613); assay: (§1) Fluorescence-based cell-based high throughput dose response assay for antagonists of the orexin 1 receptor (OX1R; HCRTR1). [Related pubchem assays (depositor defined):AID434989, AID435008, AID463079, AID485270, AID492963, AID492964, AID492965, AID493232, AID504717, AID504718]; type: functional
T2 sequence (O43613 whole entry): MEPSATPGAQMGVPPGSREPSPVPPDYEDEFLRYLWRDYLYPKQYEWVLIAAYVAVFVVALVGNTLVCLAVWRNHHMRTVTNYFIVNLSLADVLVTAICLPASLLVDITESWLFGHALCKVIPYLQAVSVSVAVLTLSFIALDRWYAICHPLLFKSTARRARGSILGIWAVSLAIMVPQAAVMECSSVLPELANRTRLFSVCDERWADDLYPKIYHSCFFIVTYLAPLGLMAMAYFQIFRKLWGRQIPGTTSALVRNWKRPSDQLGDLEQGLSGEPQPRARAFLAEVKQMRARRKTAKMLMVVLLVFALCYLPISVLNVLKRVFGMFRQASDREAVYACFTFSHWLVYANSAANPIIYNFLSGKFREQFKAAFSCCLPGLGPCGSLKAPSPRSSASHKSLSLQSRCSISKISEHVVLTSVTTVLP

Orexin receptor type 2 [10] = molecular target: T3, Orexin receptor type 2 (Homo sapiens, UniProt O43614); assay: Counterscreen assay for antagonists of the orexin 1 receptor (OX1R; HCRTR1): Homogeneous Time Resolved Fluorescence (HTRF)-based cell-based dose response assay for antagonists of the orexin 2 receptor (OX2R; HCRTR2), run by assay provider.; type: functional
[11] = Luminescence Cell-Based Dose Retest to Confirm Inhibitors of Cancer Stem Cells. [Related pubchem assays (depositor defined):AID2717, AID2721]; type: functional; conditions: Homo sapiens
BJ [12] = assay: BJ-TERT fibroblast viability loss – cell-based, RAS-independent, luminescence, dose response (AID 1933); type: functional, Homo sapiens; conditions: Homo sapiens, BJ
[13] = molecular target: T2, Orexin/Hypocretin receptor type 1; assay: as §1, with “Homogeneous Time Resolved Fluorescence (HTRF)-based” for “Fluorescence-based”; type: functional
[14] = DRD fibroblast viability loss – cell-based, non-viral oncogenic, luminescence, dose response (AID 1934); type: functional; conditions: Homo sapiens
CHO-K1 = assay: (§2) Counterscreen for antagonists of the orexin 1 receptor (OX1R; HCRTR1): Homogeneous time resolved fluorescence (HTRF)-based cell-based dose response assay to identify antagonists of the parental CHO-K1 cell line. [Related pubchem assays (depositor defined):AID434989, AID435008, AID463079, AID485270, AID492963, AID492964, AID492965, AID493232, AID504699, AID504701]; type: functional; conditions: Cricetulus griseus
BJ [15] = assay: cells; type: functional, cell-based, Homo sapiens; conditions: Homo sapiens, BJ
[16] = as §2, with “Fluorescence-based” for “Homogeneous time resolved fluorescence (HTRF)-based”, “cell-based high throughput” for “cell-based”, “CHO” for “CHO-K1”; type: functional
BJ [17] = assay: BJ-TERT-LT-ST fibroblast viability loss – cell-based, RAS-independent, luminescence, dose response (AID 1935); type: functional, Homo sapiens; conditions: Homo sapiens, BJ;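 further: BJ fibroblasts immortalized with TERT plus LT and ST oncogenes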
Orexin receptor type 2 [18] = molecular target: T3, Orexin receptor type 2; assay: Counterscreen assay for antagonists of the orexin 1 receptor (OX1R; HCRTR1): Fluorescence-based cell-based dose response assay for antagonists of the orexin 2 receptor (OX2R; HCRTR2), run by assay provider.; type: functional
[19] = HEK-293T viability loss after treatment – luminescence, T-cell screen hits, cytotoxicity control for TCR NF-kB inhibitor project, dose response (AID 489026); type: functional, cell-based;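 further: cells exposed to compound about 14 hours before the viability readout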
[20] = molecular target: Dual specificity protein kinase CLK4 (Homo sapiens, UniProt Q9HAZ1); type: functional
[21] = molecular target: Cyclin-dependent kinase 8 (Homo sapiens, UniProt P49336); assay: Navigating the Kinome. Panel member name: CDK8; type: functional
[22] = molecular target: Cyclin-dependent kinase 5 (Homo sapiens, UniProt Q00535); type: functional;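 further: CDK5 measured as one member of a kinase profiling panel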
Chain of Cyclin-dependent kinase 5 (Q00535 whole entry): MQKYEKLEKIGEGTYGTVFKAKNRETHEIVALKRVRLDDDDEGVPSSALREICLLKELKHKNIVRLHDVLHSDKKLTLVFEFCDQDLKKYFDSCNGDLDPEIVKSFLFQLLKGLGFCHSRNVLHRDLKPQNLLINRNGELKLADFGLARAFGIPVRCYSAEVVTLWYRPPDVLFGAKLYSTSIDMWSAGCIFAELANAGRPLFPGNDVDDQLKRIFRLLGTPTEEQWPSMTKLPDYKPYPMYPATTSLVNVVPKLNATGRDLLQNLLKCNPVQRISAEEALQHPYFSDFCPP

T3 sequence (O43614 whole entry): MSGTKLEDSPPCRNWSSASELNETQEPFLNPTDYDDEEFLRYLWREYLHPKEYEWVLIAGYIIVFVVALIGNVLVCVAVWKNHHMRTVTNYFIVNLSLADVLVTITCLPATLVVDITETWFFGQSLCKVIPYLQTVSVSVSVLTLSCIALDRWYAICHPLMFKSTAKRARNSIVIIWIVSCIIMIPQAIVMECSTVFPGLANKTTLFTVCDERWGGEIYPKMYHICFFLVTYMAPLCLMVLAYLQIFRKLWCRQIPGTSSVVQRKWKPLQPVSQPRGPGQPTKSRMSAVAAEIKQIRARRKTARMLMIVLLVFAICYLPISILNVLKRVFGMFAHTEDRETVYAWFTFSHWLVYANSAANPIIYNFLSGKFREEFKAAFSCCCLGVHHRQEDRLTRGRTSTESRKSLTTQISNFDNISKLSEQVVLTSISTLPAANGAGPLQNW
Chain of Cyclin-dependent kinase 7 (P50613 whole entry): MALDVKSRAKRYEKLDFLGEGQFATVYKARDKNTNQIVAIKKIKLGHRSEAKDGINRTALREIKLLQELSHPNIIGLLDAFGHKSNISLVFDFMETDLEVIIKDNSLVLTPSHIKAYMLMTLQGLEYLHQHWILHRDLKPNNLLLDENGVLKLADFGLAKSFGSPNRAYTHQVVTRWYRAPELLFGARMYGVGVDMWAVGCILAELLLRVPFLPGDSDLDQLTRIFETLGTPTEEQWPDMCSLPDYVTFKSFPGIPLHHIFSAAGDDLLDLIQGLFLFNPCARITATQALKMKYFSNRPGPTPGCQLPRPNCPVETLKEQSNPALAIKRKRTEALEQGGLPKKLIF
Chain of Cell division cycle 7-related protein kinase (O00311 whole entry): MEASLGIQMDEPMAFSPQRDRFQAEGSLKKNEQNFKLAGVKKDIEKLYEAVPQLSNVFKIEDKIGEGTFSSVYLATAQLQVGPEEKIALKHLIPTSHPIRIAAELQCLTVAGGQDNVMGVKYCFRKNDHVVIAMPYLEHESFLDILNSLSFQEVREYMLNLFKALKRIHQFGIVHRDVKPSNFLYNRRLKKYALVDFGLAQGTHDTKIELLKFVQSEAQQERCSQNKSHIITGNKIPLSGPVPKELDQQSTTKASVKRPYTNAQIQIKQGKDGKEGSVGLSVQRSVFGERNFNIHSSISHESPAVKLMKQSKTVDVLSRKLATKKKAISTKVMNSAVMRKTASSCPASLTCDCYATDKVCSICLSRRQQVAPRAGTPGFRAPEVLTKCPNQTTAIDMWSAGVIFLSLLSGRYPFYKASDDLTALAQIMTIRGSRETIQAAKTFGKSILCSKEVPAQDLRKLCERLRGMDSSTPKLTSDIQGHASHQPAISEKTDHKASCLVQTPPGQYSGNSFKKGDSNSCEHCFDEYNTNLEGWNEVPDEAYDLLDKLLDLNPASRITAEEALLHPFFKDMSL
Chain of Homeodomain-interacting protein kinase 2 (Q9H2X6 whole entry): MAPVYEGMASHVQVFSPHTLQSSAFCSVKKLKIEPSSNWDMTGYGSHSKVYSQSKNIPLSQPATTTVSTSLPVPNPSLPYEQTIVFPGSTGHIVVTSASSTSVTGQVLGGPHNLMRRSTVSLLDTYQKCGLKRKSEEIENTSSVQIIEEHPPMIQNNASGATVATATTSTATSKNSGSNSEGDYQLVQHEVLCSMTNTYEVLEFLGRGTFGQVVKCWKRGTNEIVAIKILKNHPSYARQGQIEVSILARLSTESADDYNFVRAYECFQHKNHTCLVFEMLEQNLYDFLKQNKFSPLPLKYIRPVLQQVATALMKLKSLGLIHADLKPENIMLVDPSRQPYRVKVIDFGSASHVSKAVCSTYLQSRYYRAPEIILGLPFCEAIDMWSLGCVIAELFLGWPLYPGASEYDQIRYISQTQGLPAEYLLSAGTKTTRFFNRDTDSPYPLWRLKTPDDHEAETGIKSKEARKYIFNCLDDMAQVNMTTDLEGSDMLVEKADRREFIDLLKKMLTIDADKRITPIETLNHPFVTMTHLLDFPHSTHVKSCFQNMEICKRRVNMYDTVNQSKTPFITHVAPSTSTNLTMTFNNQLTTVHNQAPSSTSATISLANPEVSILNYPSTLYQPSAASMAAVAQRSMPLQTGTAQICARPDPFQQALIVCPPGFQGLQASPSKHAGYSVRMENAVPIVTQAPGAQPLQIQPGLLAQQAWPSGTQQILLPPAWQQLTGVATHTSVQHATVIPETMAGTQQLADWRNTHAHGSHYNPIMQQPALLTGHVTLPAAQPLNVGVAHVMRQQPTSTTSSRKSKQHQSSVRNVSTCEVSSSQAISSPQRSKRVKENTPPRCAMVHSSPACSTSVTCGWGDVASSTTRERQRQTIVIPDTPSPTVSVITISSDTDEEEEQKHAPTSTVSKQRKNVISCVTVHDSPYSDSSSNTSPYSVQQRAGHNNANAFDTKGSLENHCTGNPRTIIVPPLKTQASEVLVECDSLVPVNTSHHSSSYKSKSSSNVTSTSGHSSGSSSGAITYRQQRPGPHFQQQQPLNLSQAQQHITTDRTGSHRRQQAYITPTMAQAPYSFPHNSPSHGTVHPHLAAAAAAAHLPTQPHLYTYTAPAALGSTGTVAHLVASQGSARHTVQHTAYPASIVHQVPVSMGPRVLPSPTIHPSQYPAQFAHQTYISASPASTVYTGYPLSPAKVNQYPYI
Chain of Dual specificity protein kinase CLK4 (Q9HAZ1 whole entry): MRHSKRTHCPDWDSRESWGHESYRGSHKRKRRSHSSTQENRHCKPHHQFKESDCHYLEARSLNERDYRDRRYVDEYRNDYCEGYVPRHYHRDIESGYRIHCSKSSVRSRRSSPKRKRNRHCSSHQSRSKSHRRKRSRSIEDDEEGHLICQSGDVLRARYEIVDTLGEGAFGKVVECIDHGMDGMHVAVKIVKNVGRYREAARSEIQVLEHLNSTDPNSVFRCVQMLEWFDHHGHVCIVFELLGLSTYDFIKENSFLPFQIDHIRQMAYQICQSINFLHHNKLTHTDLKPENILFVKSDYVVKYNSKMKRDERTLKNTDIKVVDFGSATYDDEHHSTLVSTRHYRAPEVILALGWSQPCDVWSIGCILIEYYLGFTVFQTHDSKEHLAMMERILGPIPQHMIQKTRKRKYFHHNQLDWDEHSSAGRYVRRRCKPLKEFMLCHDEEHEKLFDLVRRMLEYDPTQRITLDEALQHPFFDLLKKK
Chain of Mitogen-activated protein kinase kinase kinase kinase 4 (O95819 whole entry): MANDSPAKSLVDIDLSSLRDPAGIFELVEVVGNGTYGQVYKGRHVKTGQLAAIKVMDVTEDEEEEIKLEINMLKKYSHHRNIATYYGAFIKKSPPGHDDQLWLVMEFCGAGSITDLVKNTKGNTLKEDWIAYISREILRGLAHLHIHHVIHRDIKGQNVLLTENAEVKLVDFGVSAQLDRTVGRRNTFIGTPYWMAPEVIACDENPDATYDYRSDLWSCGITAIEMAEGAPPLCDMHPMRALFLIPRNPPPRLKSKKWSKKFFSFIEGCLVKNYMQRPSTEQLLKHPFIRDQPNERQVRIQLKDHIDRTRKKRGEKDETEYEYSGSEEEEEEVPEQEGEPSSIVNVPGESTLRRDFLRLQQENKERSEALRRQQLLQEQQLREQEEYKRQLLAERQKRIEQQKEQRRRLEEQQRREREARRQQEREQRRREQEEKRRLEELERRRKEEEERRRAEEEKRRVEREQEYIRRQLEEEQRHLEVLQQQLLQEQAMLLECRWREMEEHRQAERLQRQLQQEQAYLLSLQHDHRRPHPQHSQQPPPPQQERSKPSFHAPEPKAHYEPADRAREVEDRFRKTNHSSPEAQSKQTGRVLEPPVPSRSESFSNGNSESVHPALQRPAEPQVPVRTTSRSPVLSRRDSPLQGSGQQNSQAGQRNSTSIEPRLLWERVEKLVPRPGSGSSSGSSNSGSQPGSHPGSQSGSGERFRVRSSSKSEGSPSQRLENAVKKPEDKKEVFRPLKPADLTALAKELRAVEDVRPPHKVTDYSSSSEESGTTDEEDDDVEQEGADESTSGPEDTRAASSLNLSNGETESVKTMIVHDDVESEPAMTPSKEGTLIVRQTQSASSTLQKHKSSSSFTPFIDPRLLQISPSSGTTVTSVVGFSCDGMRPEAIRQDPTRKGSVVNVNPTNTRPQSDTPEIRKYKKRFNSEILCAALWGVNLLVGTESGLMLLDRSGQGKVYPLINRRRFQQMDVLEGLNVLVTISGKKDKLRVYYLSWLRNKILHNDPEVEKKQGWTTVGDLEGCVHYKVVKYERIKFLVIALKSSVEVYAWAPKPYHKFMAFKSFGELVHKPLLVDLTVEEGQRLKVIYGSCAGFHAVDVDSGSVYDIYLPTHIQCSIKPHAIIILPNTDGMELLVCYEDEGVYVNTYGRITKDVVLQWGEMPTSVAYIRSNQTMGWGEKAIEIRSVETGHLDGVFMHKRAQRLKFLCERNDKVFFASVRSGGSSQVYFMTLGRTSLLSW
Chain of Cyclin-dependent kinase 9 (P50750 whole entry): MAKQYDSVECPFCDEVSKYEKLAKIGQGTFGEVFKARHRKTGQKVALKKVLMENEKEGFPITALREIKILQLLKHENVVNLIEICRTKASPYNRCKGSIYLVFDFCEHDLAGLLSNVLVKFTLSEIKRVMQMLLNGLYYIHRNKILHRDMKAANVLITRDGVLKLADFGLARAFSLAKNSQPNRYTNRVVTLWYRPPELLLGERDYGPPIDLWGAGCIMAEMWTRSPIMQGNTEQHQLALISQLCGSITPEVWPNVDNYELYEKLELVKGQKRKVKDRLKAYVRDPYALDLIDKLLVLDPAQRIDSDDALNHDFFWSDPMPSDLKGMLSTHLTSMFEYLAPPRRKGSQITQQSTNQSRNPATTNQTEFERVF

With NC(=O)c1ccccc1Nc1nc(Nc2ccccc2)ncc1C(F)(F)F the Ki [1] was 0.00398 µM (active), the Ki [2] was 0.00501 µM (active) and the Ki [3] was 0.0398 µM (active). The Ki [4] was 0.0251 µM (active), the Ki [5] was 2.51 µM (active) and the Ki [6] was 0.2 µM (active). For the same molecule, the Ki [7] was 0.0398 µM (active) and the Ki [8] was 0.00501 µM (active).

With CCn1c2ccccc2c2cc(NC(=O)c3cc(OC)cc(OC)c3)ccc21 the AC50 (Paired box protein Pax-8) was 4.74 µM (active), the IC50 [9] was 1.38 µM (active) and the IC50 (Orexin receptor type 2 [10]) was > 50 µM (inactive). For the same molecule, the AC50 [11] was < 0.16 µM (active), the EC50 (BJ [12]) was 0.431 µM (active) and the IC50 [13] was 0.554 µM (active). The EC50 [14] was 0.545 µM (active), the IC50 (CHO-K1) was > 66.2 µM (inactive) and the EC50 (BJ [15]) was 22.8 µM (active). The IC50 [16] was > 49.8 µM (inactive), the EC50 (BJ [17]) was 0.365 µM (inconclusive) and the IC50 (Orexin receptor type 2 [18]) was 21.7 µM (inactive). The IC50 [19] was > 80 µM (inactive).

In the case of CC(C)(O)c1c(-c2ccccc2)n[nH]c(=O)c1N, the Ki [20] is reported as 31.6 µM (active), the Ki [21] is reported as 50.1 µM (active) and the Ki [22] is reported as 50.1 µM (active).
